{"source": "patent US20230255904A1", "about": "“PHARMACEUTICAL COMPOSITION FOR PREVENTING OR TREATING CANCER COMPRISING NAPHTHOQUINONE-BASED COMPOUND AND IMMUNE CHECKPOINT INHIBITOR AS ACTIVE INGREDIENTS” (NADIANBIO LTD., priority 2020, published 2023)", "key": {"LL/2": {"system": "LL/2", "assay": "Tumor growth inhibition, animal model for lung cancer II (LL/2)", "assay_type": "in vivo, C57BL/6 mice", "settings": "Experimental Example 31; LL/2 lung cancer II; dunnione 40 mg/kg oral daily from 6th day; anti-PD-1 antibody 100 μg/head, carboplatin 25 mg/kg + pemetrexed 100 mg/kg intraperitoneal 2 times a week, 3 times in total", "experimental": "(§1) All mice used in the experiments were raised in a sterile animal room with constant temperature (22° C. to 26° C.) and constant humidity (55% to 60%), acclimatized for 1 week while sufficiently supplying typical solid feed (Samtako Inc., Korea) and water, and then used. All experiments were conducted after obtaining approval from the Institutional Animal Care and Use Committee in accordance with the laboratory animal care and ethics regulations of the Institutional Animal Care and Use Committee of Wonkwang University.\n(§2) 7-week-old BALB/c or C57BL/6 mice were used, and subcutaneously inoculated using a 1-mL insulin syringe within 30 minutes after mixing the mouse cancer cells with 0.2 mL of PBS.\n(§3) After the cancer cell line was subcutaneously implanted, the administration of drugs was started when the size of the cancer reached 50 to 100 mm^3. The volumes (mm^3) of the tumors, which were generated after the inoculation, were measured at intervals of 3 days using a caliper, calculation was performed using the formula of […], and then the results thereof were compared. […]"}, "CT26": {"system": "CT26", "assay": "Tumor growth inhibition, animal model for colorectal cancer II (CT26)", "assay_type": "in vivo,  mice", "settings": "Dunnione 40 mg/kg oral every day from 6th day, 4 times", "experimental": "as §1, §2, §3"}, "B16F10": {"system": "B16F10", "assay": "Tumor growth inhibition, animal model for skin cancer (B16F10)", "assay_type": "in vivo,  mice", "experimental": "as §1, §2\n(§4) After the cancer cell line was subcutaneously implanted, the administration of drugs was started when the size of the cancer reached 50 to 100 mm^3. The volumes (mm^3) of the tumors, which were generated after the inoculation, were measured at intervals of 3 days using a caliper, calculation was performed using the formula of […], and then the results thereof were compared.\n(§5) In addition, sole administration or co-administration of respective drugs was performed according to the administration schedules listed in Tables 4 to 34 below, the tumor volumes were then measured according to the tumor proliferation assessment method described in Example 1.1, the tumor growth inhibition rates (TGI (O)=(Vc−Vt)/Vc×100(%); Vc: tumor volume of control, Vt tumor volume of experimental group) were calculated based the tumor volumes, and the results thereof are shown in the respective tables and FIGS. 1 to 31."}, "4T1": {"system": "4T1", "assay": "Tumor growth inhibition, animal model for breast cancer I (4T1)", "assay_type": "in vivo, BALB/c mice", "experimental": "as §1, §2, §4, §5"}, "RENCA": {"system": "RENCA", "assay": "Tumor growth inhibition, animal model for renal cancer (RENCA)", "assay_type": "in vivo, BALB/c mice", "experimental": "as §1, §2, §4, §5"}}}
{"smiles": "CC1OC2=C(C(=O)C(=O)c3ccccc32)C1(C)C", "note": "(stereo not shown) [Dunnione, 2,3,3-trimethyl-2H-benzo[g][1]benzofuran-4,5-dione]", "values": [{"measurement": "TGI (%)", "setting": "LL/2", "value": 23.5, "unit": "%"}, {"measurement": "TGI (%)", "setting": "CT26; Experimental Example 8, Irinotecan 4.626 mg/kg + Leucovorin 10.28 mg/kg + 5-Fluorouracil 61.68 mg/kg i.p. 2 times a week from 6th day", "value": 21.2, "unit": "%"}, {"measurement": "TGI (%)", "setting": "CT26; Experimental Example 9, Anti-PD-1 antibody 200 μg/head i.p. 2 times a week from 6th day", "value": 25.5, "unit": "%"}, {"measurement": "TGI (%)", "setting": "B16F10; Experimental Example 21, Dunnione 40 mg/kg oral every day from 6th day, Anti-PD-L1 antibody 200 μg/head i.p. 2 times a week from 6th day, 3 times", "value": 24.1, "unit": "%"}, {"measurement": "TGI (%)", "setting": "B16F10; Experimental Example 22, Dunnione 40 mg/kg oral every day from 6th day, Anti-PD-L1 antibody 200 μg/head i.p. 2 times a week from 6th day, 3 times, Paclitaxel 14 mg/kg i.p. at intervals of 1 week from 6th day, 2 times", "value": 24.1, "unit": "%"}, {"measurement": "TGI (%)", "setting": "B16F10; Experimental Example 23, Dunnione 40 mg/kg oral every day from 6th day, Anti-CTLA4 antibody 200 μg/head i.p. 2 times a week from 6th day, 4 times, Paclitaxel 14 mg/kg i.p. once on 6th day", "value": 16.7, "unit": "%"}, {"measurement": "TGI (%)", "setting": "B16F10; Experimental Example 24, Dunnione 40 mg/kg oral every day from 7th day, Anti-CTLA4 antibody 100 μg/head i.p. 2 times a week from 7th day, 2 times, Regorafenib 3 mg/kg oral every day from 7th day", "value": 9.2, "unit": "%"}, {"measurement": "TGI (%)", "setting": "B16F10; Experimental Example 25, Dunnione 40 mg/kg oral every day from 8th day, Anti-PD-1 antibody 100 μg/head i.p. 2 times a week from 8th day, 3 times, Vistusertib 15 mg/kg oral every day from 8th day", "value": 34.6, "unit": "%"}, {"measurement": "TGI (%)", "setting": "B16F10; Experimental Example 26, Dunnione 40 mg/kg oral every day from 8th day, Everolimus 0.5 mg/kg oral every day from 8th day", "value": 31.5, "unit": "%"}, {"measurement": "TGI (%)", "setting": "B16F10; Experimental Example 27, Dunnione 40 mg/kg oral every day from 8th day, Anti-PD-1 antibody 100 μg/head i.p. 2 times a week from 8th day, 3 times, Everolimus 0.5 mg/kg oral every day from 8th day", "value": 34.6, "unit": "%"}, {"measurement": "TGI (%)", "setting": "4T1; Experimental Example 10, Dunnione 40 mg/kg oral every day from 5th day, Anti-CTLA4 antibody 200 μg/head i.p. at intervals of 3 days from 5th day, 4 times, Mitoxantrone 6 mg/kg i.p. once on 5th day", "value": 8.9, "unit": "%"}, {"measurement": "TGI (%)", "setting": "4T1; Experimental Example 12, Dunnione 40 mg/kg oral every day from 7th day, Adriamycin 3.08 mg/kg + Cyclophosphamide 30.8 mg/kg + Paclitaxel 4.12 mg/kg i.p. at intervals of 1 week from 7th day, 3 times", "value": 23.6, "unit": "%"}, {"measurement": "TGI (%)", "setting": "4T1; Experimental Example 13, Dunnione 40 mg/kg oral every day from 7th day, Docetaxel 4.06 mg/kg + Adriamycin 2.7 mg/kg + Cyclophosphamide 27 mg/kg i.p. at intervals of 1 week from 7th day, 4 times", "value": 16.1, "unit": "%"}, {"measurement": "TGI (%)", "setting": "RENCA; Experimental Example 15, Dunnione 40 mg/kg oral every day from 7th day, Anti-CTLA4 antibody 200 μg/head i.p. at intervals of 3 days from 7th day, 7 times, Everolimus 250 μg/kg oral every day from 7th day", "value": 7.8, "unit": "%"}, {"measurement": "TGI (%)", "setting": "RENCA; Experimental Example 16, Dunnione 40 mg/kg oral every day from 7th day, Sorafenib 10 mg/kg oral every day from 7th day", "value": 14.5, "unit": "%"}, {"measurement": "TGI (%)", "setting": "RENCA; Experimental Example 17, Dunnione 40 mg/kg oral every day from 7th day, Anti-CTLA4 antibody 200 μg/head i.p. at intervals of 3 days from 7th day, 3 times, Sorafenib 10 mg/kg oral every day from 7th day", "value": 14.5, "unit": "%"}, {"measurement": "TGI (%)", "setting": "RENCA; Experimental Example 18, Dunnione 40 mg/kg oral every day from 7th day, Anti-PD-1 antibody 100 μg/head i.p. 2 times a week from 7th day, 5 times, Everolimus 0.1 mg/kg oral every day from 7th day", "value": 5.2, "unit": "%"}, {"measurement": "TGI (%)", "setting": "RENCA; Experimental Example 19, Dunnione 40 mg/kg oral every day from 7th day, Anti-CTLA4 antibody 200 μg/head i.p. 2 times a week from 7th day, 5 times, Sorafenib 10 mg/kg oral every day from 7th day", "value": 44.6, "unit": "%"}, {"measurement": "TGI (%)", "setting": "RENCA; Experimental Example 20, Dunnione 40 mg/kg oral every day from 10th day, Anti-CTLA4 antibody 200 μg/head i.p. 2 times a week from 10th day, 5 times, Vistusertib 10 mg/kg oral every day from 10th day", "value": 33.2, "unit": "%"}]}
